30 substances from patent US20160319277A1, “METHODS OF IMPROVED PROTEIN PRODUCTION USING MIRNAs AND SIRNAs” (THE JOHNS HOPKINS UNIVERSITY, priority 2015, published 2016) can be followed below.

One series concerns HEK-CMV-Luc2-Hygro cells. In words: High-throughput genome-wide siRNA screen and validation screen for luciferase expression. The format is cell-based, human.
Details: not given
How it is done: The Silencer Select™ Human genome siRNA library (Ambion), which targets 21,585 human genes with 3 siRNAs per gene, was used for screening. Each siRNA is arrayed in an individual well (Corning 3570, 384 well, white, solid bottom plates). The transfection was done in duplicates: 0.8 pmol of each siRNA was spotted to a well of a 384-well plate (Corning) and 20 μL of serum-free DMEM containing 0.07 μL of Lipofectamine™ RNAiMax (Life Technologies) was then added to each well. This lipid-siRNA mixture was incubated at ambient temperature for 30 min prior to addition of 4000 cells in 20 μL of DMEM containing 20% FBS (Gibco). After incubating the transfected cells at 37° C. in 5% CO2 for 72 hours, 20 μL of ONE-Glo™ Reagent (Promega) was added to one set of replicates for ‘overall luciferase yield’ quantification and 20 μL of CellTiter-Glo™ Reagent (Promega) was added to the second set of replicates for ‘viable cell density’ measurement. All plates were incubated at room temperature for 20 minutes to stabilize the luminescent signal and the signal was then measured with PerkinElmer Envision 2104 Multilabel™ plate reader.
The 56 genes which got targeted by at least two independent siRNAs (out of three) resulting in enhanced luciferase production with MAD-based z-score>3 from the primary screen were subjected to validation screen using 3 additional Silencer™ siRNAs (Ambion) with different sequences from those used in the primary screen. […] The transfection and assay processes were-the same as the primary genome-wide screen. Data visualization was performed in R computational environment (available on the World Wide Web at R-project.org/) by using ‘hexbin’ and ‘ggplot2’ packages.
The screen generated end-point data for ‘overall luciferase yield’ and ‘viable cell density’ in each well. For each plate, the median value of the negative control wells was set as 100% and was used to normalize corresponding sample wells. The ‘overall luciferase yield’ and ‘viable cell density’ were exported as % of negative control and the median absolute deviation (MAD)-based z-score was calculated for each sample.
As for “117 (GGCUGUACAUAGUCCUUUUTT; chemistry not given here; listed as Homo sapiens) [compound 117]”, the “Viable cell density (%)” value came to 66.394%.
The same measure, in the same setting: under “121 (CAUUGGUUUUGAUGAGUAUTT; chemistry not given here; listed as Homo sapiens) [compound 121]” stands 64.385%; under “122 (AGGGCUAUCUGGUAUCUGUTT; chemistry not given here; listed as Homo sapiens) [compound 122]”, 54.854%.

Still in this series, the particulars now being: Table 4; primary screen, 72 h, negative control = 100%.
Consider “103 (GACAUUGGAUCAUACUAAATT; chemistry not given here; listed as Homo sapiens) [compound 103]”, for which the “Viable cell density (%)” value is given as 88.908% and the “per cell luciferase yield (%)” value is reported as 185.522%.
For “104 (GGCGAAUGCUCCUGACUAATT; chemistry not given here; listed as Homo sapiens) [compound 104]”, in that order: 103.888% and 156.977%.
Taken in the same sequence, the figures for “105 (GCGCAAGCUUAAGAACUUUTT; chemistry not given here; listed as Homo sapiens) [compound 105]” were 94.579% and 170.349%.
Consider “106 (GCUCAUCGACAUCAAAGUUTT; chemistry not given here; listed as Homo sapiens) [compound 106]”, for which the “Viable cell density (%)” value is reported as 97.007% and the “per cell luciferase yield (%)” value is 170.088%.
Taken in the same sequence, the figures for “107 (CCAUAUAUCCGAAUGACCATT; chemistry not given here; listed as Homo sapiens) [compound 107]” were 63.879% and 256.443%.
Turning to “108 (CGGAAUCAAUGAUCCUGUATT; chemistry not given here; listed as Homo sapiens) [compound 108]”, the “Viable cell density (%)” value came to 71.395% and the “per cell luciferase yield (%)” value amounted to 212.652%.
For “109 (GCAUCGAGGAGACUAACAATT; chemistry not given here; listed as Homo sapiens) [compound 109]”, in that order: 51.696% and 275.068%.
For “110 (CAAUGAUUCUUACCCUCAATT; chemistry not given here; listed as Homo sapiens) [compound 110]”, in that order: 77.169% and 257.929%.
Taken in the same sequence, the figures for “111 (CAACCUUAUUAUCAUUGAATT; chemistry not given here; listed as Homo sapiens) [compound 111]” were 49.133% and 300.611%.
In the case of “112 (GUUUCAUCUGGGUUCGCUATT; chemistry not given here; listed as Homo sapiens) [compound 112]”, the “Viable cell density (%)” value turned out to be 62.659% and the “per cell luciferase yield (%)” value is listed as 233.649%.
Regarding “113 (GCAUCAGCUCACAACAAAATT; chemistry not given here; listed as Homo sapiens) [compound 113]”, the “Viable cell density (%)” value turned out to be 35.915% and the “per cell luciferase yield (%)” value was 409.361%.
Taken in the same sequence, the figures for “114 (GUCCUAUCACCGUAUCUUATT; chemistry not given here; listed as Homo sapiens) [compound 114]” were 55.962% and 266.627%.
Consider “115 (AGAUACUGGUAUUGCUCGATT; chemistry not given here; listed as Homo sapiens) [compound 115]”, for which the “Viable cell density (%)” value stood at 54.559% and the “per cell luciferase yield (%)” value was determined as 388.072%.
For “116 (UGGUCUCAAUGACAGUAGATT; chemistry not given here; listed as Homo sapiens) [compound 116]”, in that order: 53.645% and 370.824%.
For “117 (GGCUGUACAUAGUCCUUUUTT; chemistry not given here; listed as Homo sapiens) [compound 117]”, the “per cell luciferase yield (%)” value is recorded as 238.463%.
As for “118 (UGUGGACUGAGGUACCCAATT; chemistry not given here; listed as Homo sapiens) [compound 118]”, the “Viable cell density (%)” value was determined as 58.901% and the “per cell luciferase yield (%)” value worked out at 247.842%.
Taken in the same sequence, the figures for “119 (CUGCCGCAACAAUAAGAAATT; chemistry not given here; listed as Homo sapiens) [compound 119]” were 82.950% and 171.198%.
For the substance “120 (GGAUCAUGCUAAAAGGAGATT; chemistry not given here; listed as Homo sapiens) [compound 120]”, the “Viable cell density (%)” value is reported as 54.945% and the “per cell luciferase yield (%)” value was 311.516%.
For the substance “121 (CAUUGGUUUUGAUGAGUAUTT; chemistry not given here; listed as Homo sapiens) [compound 121]”, the “per cell luciferase yield (%)” value turned out to be 226.659%.
Take “122 (AGGGCUAUCUGGUAUCUGUTT; chemistry not given here; listed as Homo sapiens) [compound 122]”: the “per cell luciferase yield (%)” value turned out to be 283.281%.
As for “123 (GGUGUAAUAAUGUCCUUUATT; chemistry not given here; listed as Homo sapiens) [compound 123]”, the “Viable cell density (%)” value is recorded as 79.386% and the “per cell luciferase yield (%)” value is 188.094%.
For “124 (GAAUAACCGUUGGUUUAAUTT; chemistry not given here; listed as Homo sapiens) [compound 124]”, in that order: 65.083% and 292.710%.
For “125 (GGAACACUAUGAUGAGUUUTT; chemistry not given here; listed as Homo sapiens) [compound 125]”, in that order: 63.672% and 240.287%.
Taken in the same sequence, the figures for “126 (GGUGCUCUCGGUUGCACAATT; chemistry not given here; listed as Homo sapiens) [compound 126]” were 82.333% and 187.362%.
With “127 (CCAACUACCUGAACGAUGATT; chemistry not given here; listed as Homo sapiens) [compound 127]”, the “Viable cell density (%)” value is 54.133% and the “per cell luciferase yield (%)” value amounted to 311.348%.
For “128 (CAGCAAACCUUUGACCAGATT; chemistry not given here; listed as Homo sapiens) [compound 128]”, in that order: 55.405% and 277.511%.
Consider “129 (GCUAUUUCCAGCGAAUAUATT; chemistry not given here; listed as Homo sapiens) [compound 129]”, for which the “Viable cell density (%)” value was determined as 81.492% and the “per cell luciferase yield (%)” value is 244.722%.
Taken in the same sequence, the figures for “130 (GGAGGAAUCUCGAAUGCGATT; chemistry not given here; listed as Homo sapiens) [compound 130]” were 96.002% and 173.284%.
For “131 (GGAGAAAGAAUCAACGGAATT; chemistry not given here; listed as Homo sapiens) [compound 131]”, in that order: 70.586% and 284.565%.
For “132 (GGACGGAAGCGAAAAUCGATT; chemistry not given here; listed as Homo sapiens) [compound 132]”, the “Viable cell density (%)” value is 71.473% and the “per cell luciferase yield (%)” value turned out to be 216.209%.
